# Data published in US20050208139A1 (Ascend Therapeutics, Inc., priority 2004, published 2005).
# Assay: Isomerization of 4-hydroxy tamoxifen in hydroalcoholic solutions at 25°, 30° and 40° C., Z/E isomers by HPLC (Example 1)
# Assay type: physicochemical
# Method: Hydroalcoholic solutions containing 4-hydroxy tamoxifen were prepared, based on the following gel formula: […]
# In the hydroalcoholic solutions, phosphate buffer was substituted for Klucel. The composition of the buffer was as follows:
# At each of the stated concentrations, separate solutions containing Z-4-hydroxy tamoxifen or a mixture of Z- and E-4-hydroxy tamoxifen were prepared.
# Each solution was subdivided into three parts in 30 ml brown glass bottles, then placed in ovens regulated at 25°, 30°, and 40° C.
# The relative amounts of Z- and E-4-hydroxy tamoxifen isomers were determined at the initiation of the study and at 2-week, 1-month, 2-month, 3-month, 4-month and 5-month time points.
# Operating parameters for the HPLC were as follows:
# The order of elution was as follows: • 4-OHT E: retention time about 13.3 min • 4-OHT Z: retention time about 15.0 min.
# Percentages of each isomer were calculated using the following formulas: [formula] [formula] D. Data fitting:
# The reversible isomerization reaction and the equilibrium reaches are lied by the following relationship: [formula] where • A0=initial concentration of the reagent • Aeq=concentration of the same reagent at equilibrium • A=the concentration of A at time t • kf=forward rate constant • kr=reverse rate constant • t=time measured in months
# A plot of log [formula] as a function of time gives a straight line fit with a slope of [formula] and a y-intercept of 0. E. Results
# [1] = 25° C., nominal 4-hydroxy tamoxifen concentration (Z + E) in solution 0.02%
# [2] = 25° C., nominal concentration (Z + E) 0.04%
# [3] = 25° C., nominal concentration (Z + E) 0.06%
# [4] = 25° C., nominal concentration (Z + E) 0.08%
# [5] = 25° C., nominal concentration (Z + E) 0.10%
# [6] = 30° C., nominal concentration (Z + E) 0.02%
# [7] = 30° C., nominal concentration (Z + E) 0.04%
# [8] = 30° C., nominal concentration (Z + E) 0.06%
# [9] = 30° C., nominal concentration (Z + E) 0.08%
# [10] = 30° C., nominal concentration (Z + E) 0.10%
# [11] = 40° C., nominal concentration (Z + E) 0.02%
# [12] = 40° C., nominal concentration (Z + E) 0.04%
# [13] = 40° C., nominal concentration (Z + E) 0.06%
# [14] = 40° C., nominal concentration (Z + E) 0.08%
# [15] = 40° C., nominal concentration (Z + E) 0.10%
structure (smiles),measurement,setting,value
CC/C(=C(\c1ccc(O)cc1)c1ccc(OCCN(C)C)cc1)c1ccccc1 [Batch PANCHIM 7421],Rate constant,[1],0.0225 month^−1
same,Rate constant,[2],0.0637 month^−1
same,Rate constant,[3],0.0886 month^−1
same,Rate constant,[4],0.1352 month^−1
same,Rate constant,[5],0.1827 month^−1
same,Rate constant,[6],0.0457 month^−1
same,Rate constant,[7],0.0864 month^−1
same,Rate constant,[8],0.1487 month^−1
same,Rate constant,[9],0.1900 month^−1
same,Rate constant,[10],0.2568 month^−1
same,Rate constant,[11],0.1097 month^−1
same,Rate constant,[12],0.2287 month^−1
same,Rate constant,[13],0.3877 month^−1
same,Rate constant,[14],0.5311 month^−1
same,Rate constant,[15],0.6300 month^−1
CC/C(=C(\c1ccc(O)cc1)c1ccc(OCCN(C)C)cc1)c1ccccc1 [ICI batch Bx 17],Rate constant,[1],0.0347 month^−1
same,Rate constant,[2],0.0484 month^−1
same,Rate constant,[3],0.0916 month^−1
same,Rate constant,[4],0.1476 month^−1
same,Rate constant,[5],0.2169 month^−1
same,Rate constant,[6],0.0254 month^−1
same,Rate constant,[7],0.0801 month^−1
same,Rate constant,[8],0.1563 month^−1
same,Rate constant,[9],0.2718 month^−1
same,Rate constant,[10],0.3103 month^−1
same,Rate constant,[11],0.0722 month^−1
same,Rate constant,[12],0.2323 month^−1
same,Rate constant,[13],0.3924 month^−1
same,Rate constant,[14],0.5095 month^−1
same,Rate constant,[15],0.6960 month^−1
